Numbered stars: 1 amine (or outer) side, 2 acyl side, 3 side chain; on linkers, the order of the positions; unused ones are H or OH. Bridge positions count the residues as written; N and C are the ends. Square brackets hold non-standard residues; d marks the D form. Peptide text beside a SMILES is read from it. * marks the point of attachment. pTerphenylCO(4''-OnC5H11) = CCCCCOc1ccc(-c2ccc(-c3ccc(C(=O)*)cc3)cc2)cc1; Orn(4R-OH,5R-OH) = O=C([C@H](C[C@@H](O)[C@@H](O)N[*:3])N[*:1])[*:2]; hTyr(3S-OH,4S-OH) = N[C@H](C(=O)O)[C@H](O)[C@@H](O)c1ccc(O)cc1; Pro(3S-OH,4S-Me) = C[C@H]1CN[C@H](C(=O)O)[C@H]1O; Hyp = O=C(O)[C@@H]1C[C@@H](O)CN1
Tests used:
Candida albicans [1] = assay: Selectivity ratio of Ki for Candida albicans 2762 1,3-beta-D-glucan synthase subunit FKS1p T1922C mutant to Ki for Candida albicans SC5314 wild type 1,3-beta-D-glucan synthase subunit FKS1p
Candida albicans [2] = assay: Selectivity ratio of Ki for Candida albicans 90 1,3-beta-D-glucan synthase subunit FKS1p G4082R mutant to Ki for Candida albicans SC5314 wild type 1,3-beta-D-glucan synthase subunit FKS1p
Candida albicans [3] = assay: Selectivity ratio of Ki for Candida albicans A15-10 1,3-beta-D-glucan synthase subunit FKS1p T1933C mutant to Ki for Candida albicans SC5314 wild type 1,3-beta-D-glucan synthase subunit FKS1p

Measured: Ratio Ki

CCCCCOc1ccc(-c2ccc(-c3ccc(C(=O)N[C@H]4C[C@@H](O)[C@@H](O)NC(=O)[C@@H]5[C@@H](O)[C@@H](C)CN5C(=O)[C@H]([C@@H](C)O)NC(=O)[C@H]([C@H](O)[C@@H](O)c5ccc(O)cc5)NC(=O)[C@@H]5C[C@@H](O)CN5C(=O)[C@H]([C@@H](C)O)NC4=O)cc3)cc2)cc1 [ANIDULAFUNGIN] ({pTerphenylCO(4''-OnC5H11)}-[Orn(4R-OH,5R-OH)]T[Hyp][hTyr(3S-OH,4S-OH)]T[Pro(3S-OH,4S-Me)]; lactam 1-C)
> 100: all assays above

From ChEMBL document CHEMBL1629579, “Correlating echinocandin MIC and kinetic inhibition of fks1 mutant glucan synthases for Candida albicans: implications for interpretive breakpoints” (Antimicrob Agents Chemother, 2009)
